Laboratory results reported in US9968574B2, “Treatment of MCI and Alzheimer's disease” (The University of Kentucky Research Foundation, priority 2009, dated 2018).
“Also recorded” adds a separate entry of the source. Where two headings read alike, the source gives them in different places.

Key:
[1] = tested on: H4 neuroglioblastoma cells stably transfected to overexpress amyloid precursor protein (APP); test: Aβ1-42 secreted into medium by H4 cells overexpressing APP, ELISA; assay type: cell-based
Experimental: H4 neuroglioblastoma cells stably transfected with a construct overexpressing amyloid precursor protein (APP) secret Aβ1-42 into the culture medium. […] The Aβ levels in the culture medium were measured using ELISAs (Invitrogen).
We then tested if other calcium channel blockers can inhibit Aβ 1-42 generation in H4 neuroglioma cultures. Known calcium channel blockers such as Amilodpine, Dilitiazem, Felodipine, Isradipine, Nicardipine, and Nimodipine were used in this experiment.

mice = test: Aβ and Aβ processing proteins in mice, ELISA and Western blot; assay type: in vivo, mouse; conditions: IP injections (nitroso-nifedipine 35 mg/kg, 3 days)
Experimental: It is contemplated that increased ADAM-10 levels lead to increased cleavage at the alpha secretase position of APP, minimizing generation of Aβ.
The effects of NFD-L1 on levels of enzymes involved in Aβ processing in vivo were determined using a similar procedure to that described in Example 15.

beta secretase (BACE) = target: T1, beta secretase (BACE) (Homo sapiens, UniProt P56817); test: BACE activity, fluorescent substrate and purified recombinant BACE (Invitrogen kit); assay type: biochemical
T1 construct: purchased Invitrogen
T1 sequence (P56817 46-501): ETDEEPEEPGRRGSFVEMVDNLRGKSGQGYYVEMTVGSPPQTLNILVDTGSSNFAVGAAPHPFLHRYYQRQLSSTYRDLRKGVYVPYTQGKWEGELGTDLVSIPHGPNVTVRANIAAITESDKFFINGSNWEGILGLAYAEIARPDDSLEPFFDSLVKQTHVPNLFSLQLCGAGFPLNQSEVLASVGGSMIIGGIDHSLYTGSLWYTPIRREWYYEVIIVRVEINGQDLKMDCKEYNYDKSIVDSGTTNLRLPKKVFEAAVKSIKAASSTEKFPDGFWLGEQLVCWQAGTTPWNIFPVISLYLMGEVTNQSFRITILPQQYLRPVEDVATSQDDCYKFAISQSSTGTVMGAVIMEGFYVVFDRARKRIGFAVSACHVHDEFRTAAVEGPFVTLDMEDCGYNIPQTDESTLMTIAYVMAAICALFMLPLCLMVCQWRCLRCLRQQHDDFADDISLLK
Experimental: BACE activity was measured using a fluorescent substrate and purified recombinant BACE as part of a commercial kit from Invitrogen.
Using a similar procedure as described in Example 8, NFD-L1 was tested for inhibition of BACE activity.

Human astrocytoma cells = test: Inflammatory cytokine ELISAs in astrocytoma cultures; assay type: cell-based; conditions: for IL-1 secreted in the medium / IL-6 secreted in the medium / TNF-α secreted in the medium: 24 hours
Experimental: Following exposure medium was collected from each well and levels of inflammatory cytokines ([…], TNF-α, TGF-β and […]) were determined using commercially available ELISAs.
It was reported that inflammatory response elements (cytokines) are elevated in Alzheimer's disease patients. The inventors tested the nifedipine mix and individual analogs in astrocytoma cultures. Human astrocytoma cells were plated at 2.5×10^5 cells/well in 6 well culture plates and were grown for 24 hours. […] Three 6-well plates were subjected to each treatment. Following treatment, medium was collected from each well and levels of IL-1β, IL-6, TNF-α and TGF-β were measured using commercially available ELISAs.
Using a similar procedure to that described in Example 3, NFD-L1 was tested in astrocytoma cultures.

[2] = tested on: H4 neuroglioma cultures that overexpress APP; test: Levels of enzymes involved in Aβ processing in H4 cultures overexpressing APP, immunohistochemistry; assay type: cell-based
Experimental: Following treatment, cultures were rinsed three times in PBS and fixed in 70% methanol/30% acetone for 30 minutes at −20° C. Cultures were then subjected to immunohistochemistry for BACE, PS-1, GPCR-3, nicastrin, and ADAM (the enzyme responsible for alpha secretase cleavage). 30 to 50 cells were imaged in 4-5 fields/dish (3 dishes each treatment) (FIG. 22). […] Alpha secretase cleavage leads to decreased Aβ1-42.
Using a similar procedure as described in Example 13, H4 neuroglioma cultures were treated with NFD-L1 to determine the effects of NFD-L1 on levels of enzymes involved in Aβ processing.

PDS/TTR complex [3] = test: PDS/TTR complex expressed into culture medium by choroid plexus epithelial cells, Western blot; assay type: cell-based, human; conditions: control epithelial cells, 5 μM acrolein, 72 hours
Experimental: For these experiments, primary cultures of choroid plexus epithelial cells were established from short post mortem interval autopsies using established methods. AD and normal control cultures were grown to confluence in MEM growth medium containing 2% fetal bovine serum and 1% epithelial growth factor (EGF). Normal control cultures were switched to Opti-MEM containing N2 supplement and were treated with vehicle (controls) or with 5 μM acrolein for 72 hours. […] After treatment, medium was collected from each flask and was desalted using PD-10 columns. The eluted proteins were then freeze-dried, resuspended in 25 μl water and analyzed using Western blot analysis and antibodies specific to PDS and TTR.
The amount of PDS/TTR secreted into the culture medium by each culture was determined by Western blot analysis as described above.

PDS/TTR complex [4] = test: PDS/TTR-positive epithelial cells by immunostaining; assay type: cell-based, human; conditions: acrolein alone
Source text: In addition, immunostaining was used to determine the PDS/TTR-positive cells and the numbers of PDS/TTR-positive cells from treated and untreated cell cultures were counted and compared.

[5] = tested on: orphan G-coupled receptor protein 3 (GPCR-3); conditions: mice of Example 10
Experimental: (§1) Based on the in vitro data described above, the inventors initiated an acute exposure study in 3 month old C57-Black-6 (C57BL/6) mice.
In addition, GPCR-3 levels were determined in the C57BL/6 mice described above in Example 10 using Western blot analysis.

[6] = tested on: orphan G-coupled receptor protein 3 (GPCR-3); conditions: H4 cells, 1 μM (0.5 μM T3/0.5 μM T4), 16 hours
Experimental: Levels of GPCR-3 were measured using Western blot analysis using a GPCR-3 specific antibody.

C57/B16 mice [7] = test: EAAT2 in tissue of treated mice, Western blot; assay type: in vivo, mouse; conditions: 25 mg/kg, 3 days
C57/B16 mice [8] = test: Brain Aβ1-40 in mice given nitroso-nifedipine IP, Covance ELISA; assay type: in vivo, mouse; conditions: 35 mg/kg IP, 3 days
Experimental: The animals were sacrificed 15 minutes following the final injection. Brains were quickly removed, split into hemispheres, and snap frozen in liquid nitrogen. Brains were shipped on dry ice and maintained at −80° C. until used for analysis. One hemisphere of each brain was homogenized in diethylamine (200 mg wet weight/mL) containing complete protease inhibitors using a Dounce homogenizer. Homogenate was centrifuged at 16,000×g for 30 minutes and 50 μL soluble protein subjected to Aβ1-40 quantification using a Covance ELISA per manufacturer's instructions. Results are expressed as % vehicle treated animals.

H4 neuroglioma cultures [9] = test: Survival of H4 cells, MTT reduction; assay type: cell-based; conditions: increasing concentrations, 16 hours
Experimental: Specifically, H4 neuroglioma cultures were plated at a density of 2.5×10^5 cells/well and allowed to attach overnight. […] Following treatment, MTT was added at a final concentration of 0.5 mg/mL and cultures incubated for 30 minutes. Following MTT treatment, medium was removed and the formazan crystals generated by mitochondrial conversion of MTT were dissolved in DMSO and absorbance was measured at 650 nm. Data are reported as mean±SEM % control MTT reduction (FIG. 21).

H4 neuroglioma cultures [10] = test: Calcium influx after KCl depolarization in H4 cultures, Fluo-4 AM confocal microscopy; assay type: cell-based; conditions: 1 μM nifedipine or […] nitroso-nifedipine, 1 hour
Experimental: Cells were depolarized by addition of 40 μL 100 mM KCl and calcium levels quantified 30 seconds following depolarization by confocal microscopy (n=75-100 cells/dish for 3 dishes/treatment).

[11] = Liver toxicity study: serum alkaline phosphatase in mice; assay type: in vivo, mouse
[12] = mouse, in vivo
Source text: as §1

Structure (SMILES)	ADAM-10 level (mice)	Aβ1-40 level (mice)	cleaved Notch-1 level (mice)	presenilin-1 level (mice)	BACE activity (beta secretase (BACE); agent alone)	IL-1 secreted in the medium (Human astrocytoma cells)	IL-6 secreted in the medium (Human astrocytoma cells)	TNF-α secreted in the medium (Human astrocytoma cells)	ADAM-10 level [2]	BACE protein level [2]	PS-1 level [2]	nicastrin (NCT) level [2]	BACE activity (beta secretase (BACE); in combination with thyroxine)	also measured
COc1ccc([C@@H]2Sc3ccccc3N(CCN(C)C)C(=O)[C@@H]2OC(C)=O)cc1 [Dilitiazem, reference compound]														Aβ formation, calcium channel blocker combined with T3/T4 ([1]; 1 μM with T3/T4, 16 hours): significant decrease
COC(=O)c1c(C)nc(C)c2c(=O)[nH]c3ccccc3c12 [NFD-L1]	significant increase	significant decrease	significant increase	significant decrease	significantly inhibits	significantly reduced	significantly reduced	significantly reduced	significant increase	significant decrease	significant decrease	significant decrease		Aβ 1-42 generation ([1]; procedure similar to Example 6): inhibited; inflammatory cytokine production (Human astrocytoma cells): inhibited
C=CC=O [acrolein]														expression of the PDS/TTR complex in culture medium (PDS/TTR complex [3]): increased; number of PDS/TTR-positive cells, % of untreated control (PDS/TTR complex [4]): about 600%
COC(=O)C1=C(C)NC(C)=C(C(=O)OC)C1c1ccccc1[N+](=O)[O-] [nifedipine, 1,4-dihydro-2,6-dimethyl-4-(2-nitrophenyl)-3,5-pyridinedicarboxylic acid dimethyl ester]					slightly inhibited								slightly inhibited	GPCR-3 expression level [5]: reduced; GPCR-3 expression level [6]: significantly reduced; EAAT2 level (C57/B16 mice [7]): significant increase
COC(=O)c1c(C)nc(C)c(C(=O)OC)c1-c1ccccc1N=O [nitroso-nifedipine, 2,6-dimethyl-4-(2-nitrosophenyl)-3,5-pyridinedicarboxylic acid dimethyl ester]	significant increase	significant decrease	significant increase	significant decrease	significant inhibition; also recorded: significantly inhibits				significant increase	significant decrease	did not significantly alter	did not significantly alter	significant inhibition	levels of Aβ1-40, % vehicle treated animals (C57/B16 mice [8]): significant decrease; resistance (survival) of H4 cultures compared to nifedipine (H4 neuroglioma cultures [9]): more resistant; Ca influx following depolarization (H4 neuroglioma cultures [10]): significant increase; serum alkaline phosphatase level ([11]; 35 mg/kg): significant decrease; serum alkaline phosphatase level ([11]; any dose): did not significantly increase; liver damage ([11]; mice): does not induce liver damage; GPCR-3 level [2]: significant increase
COC(=O)c1c(C)nc(C)c(C(=O)OC)c1-c1ccccc1[N+](=O)[O-] [oxidized nifedipine, 2,6-dimethyl-4-(2-nitrophenyl)-3,5-pyridinedicarboxylic acid dimethyl ester]						significantly reduced	significantly reduced	significantly reduced						presence in brain extracts (passing the blood-brain barrier) [12]: found in all samples analyzed
